Reference: patent US10174052B2, “Quinuclidine compounds as α-7 nicotinic acetylcholine receptor ligands” (BRISTOL-MYERS SQUIBB COMPANY, priority 2014, dated 2019)

Biological target: T1, α7 nicotinic ACh receptor ion channel expressed in mammalian HEK 293 cells (Rattus norvegicus, UniProt Q05941)
T1 construct: expressed in transfected cells
Experiment: Ca2+-sensitive fluorescence-based assay for α7 nicotinic acetylcholine receptor channel function (FLIPR), agonist activity
Type: cell-based
Conditions: HEK 293 cells, Ca2+ flux
Experimental: II) A Ca^2+-Sensitive, Fluorescence-Based Assay α-7 for Nicotinic Acetylcholine Receptor Channel Function in Mammalian Cells (“FLIPR”).
Lead compounds are evaluated for agonist activity at the α7 nicotinic ACh receptor ion channel expressed in mammalian HEK 293 cells. Agonist potency and efficacy values are determined from kinetic fluorescence Ca^2+ influx measurements made using a 384 well FLIPR (Fluorescence Image Plate Reader). The utility of fluorescent indicators for measuring changes in intracellular divalent cation concentrations, particularly Ca^2+, for drug discovery endeavors is well documented (Rudiger, R., et al., Nature Reviews, 2003, 4:579-586; Gonzalez J. E., et al., Receptors and Channels, 2002, 8:283-295). In this assay, channel expressing HEK cell lines seeded in 384 well assay plates are loaded with a membrane permeant fluorescent Ca^2+ indicator dye, whose 510 nm green emission signal increases in response to elevation of intracellular Ca^2+ concentration. The basal fluorescence from the cells is monitored in real time, followed by the acute addition of test compounds. If the compound is an agonist at any of the non-selective cation channels, the latter open and allow the movement of extracellular Ca^2+ ions into the cell cytoplasm, where they bind to the Ca^2+ indicator dye, and produce an increase in fluorescence output signal, which is detected by a cooled CCD imaging camera.
Reagents: The acetomethoxy (AM) ester of the Ca^2+ indicator dye Fluo-4 was obtained from InVitrogen, (Carlsbad, Calif.). Acetylcholine and all buffer constituents were purchased from Sigma Chemical Company, St. Louis, Mo. G418 and Minimal Essential Medium were purchased from InVitrogen Life Technologies, Carlsbad, Calif. Fetal bovine serum was purchased from (InVitrogen, Carlsbad, Calif.).
HEK-293 cells were grown in Minimal Essential Medium containing 10% (v/v) fetal bovine serum at 37° C. in a 5% CO2 incubator. HEK-293 cells stably expressing the ion channels were grown in the same medium with the addition of 500 μg/ml G418.
HEK-293 cells expressing the ion channels of interest were plated in 384 well, black-walled, clear-bottomed, poly-D-lysine coated plates at a density of ˜20,000 cells/well in 20 μl of Minimal Essential Medium containing 10% (v/v) fetal bovine serum and incubated for 2 days at 29° C. in a 5% CO2 incubator. Prior to assay, cells were loaded with the Fluo-4 AM ester. Cell loading was accomplished by removing the culture medium and replacing it with 30 μl/well of the AM ester of the dye (5 μM) mixed with Hanks Balanced Salt Solution (#14175-095) containing 20 mM HEPES, 2.5 mM probenecid, 0.5 mM CaCl2, 1 mM MgCl2 and 10 μM atropine. Dye loading was allowed to proceed for 90 minutes at room temperature at which time the dye loading solution was removed and replaced with 40 μl/well of Hanks buffer. Cells loaded with dye were loaded onto a FLIPR384 (Molecular Devices, Sunnyvale, Calif.). Fluo-4 dye was excited using the 488 nm line of an argon laser. Emission was filtered using a 540+/−30 nm bandpass filter. For evaluation of the effects of test compounds using the Ca^2+ flux assay, compounds to be tested were provided in assay ready plates. For nicotinic receptor ion channel expressing cells, the assay was initiated by the addition of 20 μl/well of Hanks buffer containing test compounds. For all assays, data were collected at 1 Hz for 10 seconds (baseline), at which time the compound containing stimulus buffers are added, and further measurements collected at 0.33 Hz for 3 min.
The statistical robustness of the nicotinic receptor Ca^2+ flux assays is determined from blanks and totals wells. The totals wells define maximal channel activation for each compound test plate (Maximum efficacious dose of acetylcholine), and the blanks wells which contain matched DMSO only, define zero channel activation. […]

[1] = FLIPR α7 (EC50, nM), agonist potency
[2] = FLIPR α7 activity rating (EC50, nM), class rating of EC50

T1 sequence (Q05941 23-502): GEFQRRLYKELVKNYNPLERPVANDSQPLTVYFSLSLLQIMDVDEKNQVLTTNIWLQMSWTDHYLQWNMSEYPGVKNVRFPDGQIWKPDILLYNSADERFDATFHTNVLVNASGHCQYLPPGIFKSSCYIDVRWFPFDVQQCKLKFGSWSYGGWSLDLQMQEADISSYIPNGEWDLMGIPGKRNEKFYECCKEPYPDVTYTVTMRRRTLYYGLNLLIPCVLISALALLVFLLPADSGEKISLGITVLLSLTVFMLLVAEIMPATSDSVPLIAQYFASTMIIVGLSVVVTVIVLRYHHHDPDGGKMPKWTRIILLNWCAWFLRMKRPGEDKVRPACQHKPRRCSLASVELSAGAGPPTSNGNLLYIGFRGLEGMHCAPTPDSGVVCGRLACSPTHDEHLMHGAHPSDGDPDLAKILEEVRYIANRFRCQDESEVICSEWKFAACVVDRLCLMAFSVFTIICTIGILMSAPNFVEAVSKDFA

| SMILES | EC50 [1] | EC50 [2] |
| --- | --- | --- |
| c1ccc(-c2cn3c(n2)O[C@@]2(CN4CCC2CC4)C3)cc1 [Example 21a, (S)-6-Phenyl-3H-1′-azaspiro[imidazo[2,1-b]oxazole-2,3′-bicyclo[2.2.2]octane]] | 10 nM | < 100 nM |
| Cc1ccc2c(c1)nc1n2C[C@@]2(CN3CCC2CC3)O1 (single isomer, unassigned) [Example 7b] | 5.1 nM | < 100 nM |
| COc1ccc2c(c1)nc1n2C[C@]2(CN3CCC2CC3)O1 (single isomer, unassigned) [Example 6a] | 1430 nM | 1000 to 100000 nM |
